According to patent publication US20250177581A1, “NTSR1-TARGETED RADIOPHARMACEUTICALS AND DNA DAMAGE RESPONSE INHIBITOR COMBINATION THERAPY” (Fusion Pharmaceuticals Inc., priority 2022, published 2025):

System: CT-26-mNTSR1 tumor
Assay: Combination of [^225Ac]-Compound A and Olaparib in CT-26-mNTSR1 tumor bearing mice, tumor growth
Format: in vivo, mouse
Details: olaparib monotherapy at 50 mg/kg
Description: An in vivo study was conducted to test the effect of [^225Ac]-Compound A (as described in Example 3) in combination with Olaparib in CT-26-mNTSR1 tumor bearing mice.

**Q.** O=C(c1cc(Cc2n[nH]c(=O)c3ccccc23)ccc1F)N1CCN(C(=O)C2CC2)CC1 [olaparib] was tested. Which “reduction in tumor growth compared to control mice” value did it give?
**A.** Its value is “slight or neglible reduction in tumor growth”.
